Reference: ChEMBL document CHEMBL1201862, “PubChem BioAssay data set” (2004)
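Protocol summary: plate cells (96-well), add compound at 5 concentrations, incubate 48 h, interpolate endpoints linearly. GI50 = concentration required for 50% inhibition of growth.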 Active and inactive are the calls of the source. Cut-off read from the data, not from the text of the source: active = GI50 up to about 1.1 µM and inactive = higher.

How the values were obtained:
Assay in all cases: NCI anticancer screen, dose series, 48 h
NCI/ADR-RES = test system: NCI/ADR-RES
BT-549 = test system: BT-549
T47D = test system: T47D
RXF 393 = test system: RXF 393
SNB-19 = test system: SNB-19
HL-60 = test system: HL-60
RPMI-8226 = test system: RPMI-8226
OVCAR-4 = test system: OVCAR-4
NCI-H522 = test system: NCI-H522
HT-29 = test system: HT-29
U-251 = test system: U-251
SK-MEL-28 = test system: SK-MEL-28
SK-MEL-5 = test system: SK-MEL-5
OVCAR-5 = test system: OVCAR-5
HCC 2998 = test system: HCC 2998
UACC-62 = test system: UACC-62
Hs-578T = test system: Hs-578T
SR = test system: SR
NCI-H460 = test system: NCI-H460

SMILES | GI50 (NCI/ADR-RES) | GI50 (BT-549) | GI50 (T47D) | GI50 (RXF 393) | GI50 (SNB-19) | GI50 (HL-60) | GI50 (RPMI-8226) | GI50 (OVCAR-4) | GI50 (NCI-H522) | GI50 (HT-29) | GI50 (U-251) | GI50 (SK-MEL-28) | GI50 (SK-MEL-5) | GI50 (OVCAR-5) | GI50 (HCC 2998) | GI50 (UACC-62) | GI50 (Hs-578T) | GI50 (SR) | GI50 (NCI-H460)
O=Nc1ccc(O)c2ncccc12 | 3.85 µM (inactive) | 10.5 µM (inactive) | 7.53 µM (inactive) | 1.67 µM (inactive) | 16 µM (inactive) | 0.581 µM (active) | 3.52 µM (inactive) | 11.6 µM (inactive) | 1.43 µM (inactive) | 15.3 µM (inactive) | 3.31 µM (inactive) | 4.34 µM (inactive) | 7.21 µM (inactive) | 15.7 µM (inactive) | 15.6 µM (inactive) | 0.875 µM (active) | 0.531 µM (active) | 0.328 µM (active) | 1.25 µM (inactive)
BrCC[N+]12CC[N+](CCBr)(CC1)C2 | > 100 µM (inactive) | > 100 µM (inactive) | > 100 µM (inactive) | > 100 µM (inactive) | > 100 µM (inactive) | > 100 µM (inactive) | > 100 µM (inactive) | > 100 µM (inactive) | > 100 µM (inactive) | > 100 µM (inactive) | > 100 µM (inactive) | > 100 µM (inactive) | > 100 µM (inactive) | > 100 µM (inactive) | > 100 µM (inactive) | > 100 µM (inactive) | > 100 µM (inactive) | > 100 µM (inactive) | > 100 µM (inactive)
COC(=O)/N=[N+](\[O-])C(c1ccccc1)c1ccccc1 | 40.1 µM (inactive) | > 100 µM (inactive) | 40.2 µM (inactive) | 63.8 µM (inactive) | > 100 µM (inactive) | > 100 µM (inactive) | 38.5 µM (inactive) | 34.8 µM (inactive) | > 100 µM (inactive) | > 100 µM (inactive) | > 100 µM (inactive) | > 100 µM (inactive) | 41.9 µM (inactive) | > 100 µM (inactive) | > 100 µM (inactive) | 51.6 µM (inactive) | > 100 µM (inactive) | > 100 µM (inactive) | > 100 µM (inactive)
Cc1c(/C=N/NC(=S)Nc2cccc(Cl)c2)c(=O)n(-c2ccccc2)n1C | 4.35 µM (inactive) | 21.4 µM (inactive) | 30.4 µM (inactive) | 15.8 µM (inactive) | 19.1 µM (inactive) | 24 µM (inactive) | 40.9 µM (inactive) | 16.4 µM (inactive) | – | 27.9 µM (inactive) | 20.7 µM (inactive) | > 100 µM (inactive) | 36.1 µM (inactive) | – | 55.6 µM (inactive) | 30.7 µM (inactive) | 13.9 µM (inactive) | 50.1 µM (inactive) | 9.4 µM (inactive)
CC1CC(=O)Nc2nc3ccccc3n21 (stereo unspecified) | > 100 µM (inactive) | > 100 µM (inactive) | > 100 µM (inactive) | > 100 µM (inactive) | > 100 µM (inactive) | > 100 µM (inactive) | > 100 µM (inactive) | > 100 µM (inactive) | > 100 µM (inactive) | > 100 µM (inactive) | > 100 µM (inactive) | – | > 100 µM (inactive) | > 100 µM (inactive) | – | > 100 µM (inactive) | > 100 µM (inactive) | > 100 µM (inactive) | > 100 µM (inactive)
CC(=O)NC(CCC(=O)C=[N+]=[N-])C(=O)O (stereo unspecified) | > 100 µM (inactive) | > 100 µM (inactive) | > 100 µM (inactive) | > 100 µM (inactive) | > 100 µM (inactive) | > 100 µM (inactive) | > 100 µM (inactive) | > 100 µM (inactive) | > 100 µM (inactive) | > 100 µM (inactive) | > 100 µM (inactive) | > 100 µM (inactive) | > 100 µM (inactive) | > 100 µM (inactive) | > 100 µM (inactive) | > 100 µM (inactive) | > 100 µM (inactive) | > 100 µM (inactive) | > 100 µM (inactive)
C=C1C(=O)C[C@H]2C(=C)C(=O)O[C@@H]2C2C1CC[C@@]2(C)O (stereo partly specified) | 26.2 µM (inactive) | 19.8 µM (inactive) | 28.2 µM (inactive) | 15.4 µM (inactive) | > 100 µM (inactive) | > 100 µM (inactive) | 7.98 µM (inactive) | > 10 µM (inactive) | 12.7 µM (inactive) | 20 µM (inactive) | 45.6 µM (inactive) | 27.4 µM (inactive) | 39.4 µM (inactive) | 32.8 µM (inactive) | 19 µM (inactive) | 14.9 µM (inactive) | 26.9 µM (inactive) | 27.1 µM (inactive) | 18.8 µM (inactive)
C1=N\CCNCC/N=C/c2ccccc2OCc2cccc(n2)COc2ccccc2/1 | 6.21 µM (inactive) | 12 µM (inactive) | 17.2 µM (inactive) | 27.9 µM (inactive) | > 22.4 µM (inactive) | 2.56 µM (inactive) | 3.77 µM (inactive) | 13.7 µM (inactive) | 27.5 µM (inactive) | 10.7 µM (inactive) | 6.32 µM (inactive) | 7.85 µM (inactive) | 12.6 µM (inactive) | 37.5 µM (inactive) | 19.5 µM (inactive) | 6.15 µM (inactive) | 9.51 µM (inactive) | 4.06 µM (inactive) | 33.1 µM (inactive)
COc1ccc(C(=O)Cn2c(C(=O)/C=C/c3ccco3)nc3ccccc32)cc1 | 25.9 µM (inactive) | 34.4 µM (inactive) | 66.7 µM (inactive) | 41.3 µM (inactive) | 39.2 µM (inactive) | 22.1 µM (inactive) | 19.3 µM (inactive) | 37.1 µM (inactive) | – | 36.6 µM (inactive) | 32.7 µM (inactive) | 42.2 µM (inactive) | 26.7 µM (inactive) | > 100 µM (inactive) | 16.6 µM (inactive) | 27.4 µM (inactive) | 25.3 µM (inactive) | 10 µM (inactive) | 23.5 µM (inactive)
CN(C)CCCNc1ccc2nnn3c4ccc(OC(=O)c5ccc([N+](=O)[O-])cc5)cc4c(=O)c1c23 | 8.2 µM (inactive) | 16.4 µM (inactive) | 24.2 µM (inactive) | 1.33 µM (inactive) | 2.95 µM (inactive) | – | 2.44 µM (inactive) | 2.47 µM (inactive) | 1.32 µM (inactive) | 2.55 µM (inactive) | 4.58 µM (inactive) | 13.7 µM (inactive) | – | 11.5 µM (inactive) | 5.64 µM (inactive) | 15.9 µM (inactive) | 9.77 µM (inactive) | 0.574 µM (active) | 0.467 µM (active)
COc1ccc2cc1Oc1ccc(cc1)C(Sc1ccccc1)CCOC(=O)CC2 (stereo unspecified) | > 100 µM (inactive) | > 100 µM (inactive) | 11.5 µM (inactive) | > 100 µM (inactive) | > 100 µM (inactive) | 28.1 µM (inactive) | 13.4 µM (inactive) | > 100 µM (inactive) | > 100 µM (inactive) | > 100 µM (inactive) | > 100 µM (inactive) | > 100 µM (inactive) | 63.1 µM (inactive) | > 100 µM (inactive) | > 100 µM (inactive) | > 100 µM (inactive) | > 100 µM (inactive) | > 100 µM (inactive) | –
CC(C)(C)C(=O)OCC1CCC[N+]2(C)CCCCC12 (stereo unspecified) | > 100 µM (inactive) | > 100 µM (inactive) | > 100 µM (inactive) | > 100 µM (inactive) | > 100 µM (inactive) | – | > 100 µM (inactive) | > 100 µM (inactive) | – | > 100 µM (inactive) | > 100 µM (inactive) | > 100 µM (inactive) | > 100 µM (inactive) | > 100 µM (inactive) | > 100 µM (inactive) | > 100 µM (inactive) | > 100 µM (inactive) | > 100 µM (inactive) | > 100 µM (inactive)
CCN(CC)c1ccc2cc(C(N)=O)c(=N)oc2c1 | 53.1 µM (inactive) | 52.5 µM (inactive) | 23.7 µM (inactive) | 55 µM (inactive) | 42.1 µM (inactive) | 36.5 µM (inactive) | 96.6 µM (inactive) | 23.6 µM (inactive) | – | 51.5 µM (inactive) | 98.6 µM (inactive) | 31.3 µM (inactive) | 32.5 µM (inactive) | 51.5 µM (inactive) | 5.36 µM (inactive) | 30.8 µM (inactive) | 16.3 µM (inactive) | 14.6 µM (inactive) | 27 µM (inactive)
COC(=O)C1C(OS(=O)(=O)O)CCC2CN3CCc4c([nH]c5ccccc45)C3CC21 (stereo unspecified) | > 100 µM (inactive) | > 100 µM (inactive) | > 100 µM (inactive) | > 100 µM (inactive) | > 100 µM (inactive) | > 100 µM (inactive) | > 100 µM (inactive) | > 100 µM (inactive) | > 100 µM (inactive) | > 100 µM (inactive) | > 100 µM (inactive) | > 100 µM (inactive) | > 100 µM (inactive) | > 100 µM (inactive) | – | > 100 µM (inactive) | > 100 µM (inactive) | > 100 µM (inactive) | > 100 µM (inactive)
COc1ccccc1NCc1nnc(CCCCCCCCc2nnc(CNc3ccccc3OC)o2)o1 | > 100 µM (inactive) | > 100 µM (inactive) | > 100 µM (inactive) | > 100 µM (inactive) | > 100 µM (inactive) | – | > 100 µM (inactive) | > 100 µM (inactive) | > 100 µM (inactive) | > 100 µM (inactive) | > 100 µM (inactive) | – | > 100 µM (inactive) | > 100 µM (inactive) | > 100 µM (inactive) | > 100 µM (inactive) | > 100 µM (inactive) | > 100 µM (inactive) | > 100 µM (inactive)
